# Values quoted from earlier work, collected in patent US11123368B2, “Immunosuppressive blood cells and methods of producing the same” (Universitatsklinikum Heidelberg, priority 2008, dated 2021).
# System: multiple sclerosis
# Details: clinical trials
substance,measurement,setting,value
glatiramer acetate,relapse rate of MS,,significantly reduced
same,progression of disability,MS,slowed progression of disability
